Data taken from US20060183773A1, “Uses of methylphenidate derivatives” (priority 2005, published 2006).

Experiments:
[1] = tested on: T cells; assay: CD69+TCR staining of PBL, flow cytometry (T-cell activation); assay type: cell-based, human; conditions: for CD69+TCR staining of PHA-stimulated cells: PHA alone 84%
Method: After this incubation, PHA was added to give a final concentration of 5 μg/ml, and the cells were incubated for an additional 72 hours at 37° C., 5% CO2. All cultures were performed in triplicate. Cells were then removed by centrifugation at 1000 rpm for 10 minutes.
The cells were further analyzed by flow cytometry. Annexin was used to determine populations of dead or dying cells. Anti-CD69 antibody was used to establish the level of cellular activation. Antibody to T-cell receptor αβ (TCR) was also used. Recombinant Annexin 5 (PE and FITC conjugates) and the antibodies were all purchase from Caltag (Burlingham, Calif.) and used following the manufacturer's recommendations.

[2] = tested on: IL-8; assay: IL-8 production by CD3/CD28-stimulated TRiPS T-cell line, ELISA; assay type: cell-based, human; conditions: 15 μg/ml; CD3/CD28 Dynabeads, 24 hours
[3] = tested on: MC/9 murine fibroblast cell line; assay: MC/9 cell proliferation, Promega cell titer assay; assay type: cell-based; conditions: 72 hours
Method: Cells of the MC/9 murine […] cell line (obtained from ATCC, catalog no. CRL-8305) were placed into the wells of a 96-well tissue culture plate at 25,000 cells/well. The culture medium was Delbecco's Modified Eagle's Medium (DMEM) (obtained from Cambrex) containing 10% fetal calf serum (FCS) (obtained from ATCC). Nil control wells contained no additives. The remaining wells contained either 25 ng/ml murine nerve growth factor (NGF) (obtained from Upstate Biotechnology, Lake Placid, NY) or 25 ng/ml NGF and 5% TSTIM (a culture supplement prepared from rats and containing concanavalin A which was obtained from BD Biosciences). […] After 72 hours of culture at 37° C. and 5% CO2, cell proliferation was evaluated by the Promega cell titer assay as described in Example 1.

[4] = tested on: RAP-1; assay: RAP-1 activation pulldown assay in TRiPS cells; assay type: cell-based, human; conditions: CD3/CD28 beads + 15 μg/ml
Method: Day 10 TRiPS cells, 1×10^6, were incubated with 15 μg/ml of the compound of formula II (Cpd II) for 1 hour at 37° C. Then, the cells were incubated with CD3/CD28 beads (1 μl per 100,000 cells) (obtained from Dynal) for 10 minutes at 37° C. The cells were then lysed with a mild buffer (supplied with Pierce EZ-Detect activation kit described below) to produce cell extracts. Protein concentrations of the resulting extracts were determined by bicinchoninic acid (BCA) assay (Pierce) and placed on ice for immediate use.
Pulldown assays were performed using Pierce EZ-Detect activation kits according to the manufacturer's instructions utilizing GST-RAF-1-RBD and GST-RalGDS-RBD for RAS and RAP-1 respectively. Briefly, 400 μg total protein from each extract was combined with recombinant protein and glutathione resin and incubated at 4° C. for one hour with gentle shaking. The resin was then washed to remove unbound protein and the activated RAS and RAP-1 proteins were removed by boiling in the presence of SDS-PAGE loading dye containing reducing agent. RAS and RAP-1 western blots were performed to visualize the proteins using antibodies supplied with the kit. Densitometry of the X-ray films was done by scanning and computer analysis.

[5] = tested on: JAK2; assay: Custom AntibodyArray, TRiPS cells: JAK2; assay type: cell-based, human; conditions: 15 μg/ml, 30 minutes
Method: (§1) Day 18 TRiPS cells, 1×10^6, were incubated for 30 minutes at 37° C., either with nothing added (“Nil”), with 1 μl CD3/CD28 Dynabeads (Dynal, Oslo, Norway) (“CD3/CD28 beads”) per 100,000 cells, or with CD3/CD28 beads and 15 μg/ml of the compound of formula II (Cpd II). After the incubation, the cells were lysed in Cell-Lytic Mammalian Cell Extraction Reagent (Sigma). After centrifugation to pellet cellular debris, the supernatants (cell extracts) were obtained.
(§2) The cell extracts (supernatants) were then analyzed using a Custom AntibodyArray™ manufactured by Hypromatrix Inc., Worcester, Mass., following the manufacturer's instructions. The Custom AntibodyArray™ is a nylon membrane blotted with antibodies to the proteins listed below. Briefly, the cell extracts were incubated with duplicate Custom AntibodyArray™'s for 2 hours at room temperature with slow shaking, followed by three washes with Tris buffer (150 mM NaCl, 25 mM Tris, 0.05% Tween-20, pH 7.5). HRP-labeled antibodies specific for phosphorylated-tyrosine, phosphorylated-serine and phosphorylated-threonine in Tris buffer were added, and the arrays incubated for 2 hours. After three more washes with Tris buffer, a peroxidase-reactive luminescent substrate was added. The arrays were visualized by exposure to X-ray film. Densitometry of the X-ray films was measured by scanning and computer analysis.

[6] = tested on: STAT5b; assay: Custom AntibodyArray, TRiPS cells: STAT5b; assay type: cell-based, human; conditions: 15 μg/ml, 30 minutes
Method: as §1, §2

[7] = tested on: PI3kinaseP85; assay: Custom AntibodyArray, TRiPS cells: PI3kinaseP85; assay type: cell-based, human; conditions: 15 μg/ml, 30 minutes
Method: as §1, §2

[8] = tested on: MEK1; assay: Custom AntibodyArray, TRiPS cells: MEK1; assay type: cell-based, human; conditions: 15 μg/ml, 30 minutes
Method: as §1, §2

[9] = tested on: JNK1; assay: Custom AntibodyArray, TRiPS cells: JNK1; assay type: cell-based, human; conditions: 15 μg/ml, 30 minutes
Method: as §1, §2

[10] = tested on: JNK2; assay: Custom AntibodyArray, TRiPS cells: JNK2; assay type: cell-based, human; conditions: 15 μg/ml, 30 minutes
Method: as §1, §2

[11] = tested on: JNK3; assay: Custom AntibodyArray, TRiPS cells: JNK3; assay type: cell-based, human; conditions: 15 μg/ml, 30 minutes
Method: as §1, §2

[12] = tested on: IkB-r; assay: Custom AntibodyArray, TRiPS cells: IkB-r; assay type: cell-based, human; conditions: 15 μg/ml, 30 minutes
Method: as §1, §2

[13] = tested on: IL-2; assay: Custom AntibodyArray, TRiPS cells: IL-2; assay type: cell-based, human; conditions: 15 μg/ml, 30 minutes
Method: as §1, §2

[14] = tested on: IL-4; assay: Custom AntibodyArray, TRiPS cells: IL-4; assay type: cell-based, human; conditions: 15 μg/ml, 30 minutes
Method: as §1, §2

[15] = tested on: STAT6; assay: Custom AntibodyArray, TRiPS cells: STAT6; assay type: cell-based, human; conditions: 15 μg/ml, 30 minutes
Method: as §1, §2

[16] = tested on: IkB-α; assay: Custom AntibodyArray, TRiPS cells: IkB-α; assay type: cell-based, human; conditions: 15 μg/ml, 30 minutes
Method: as §1, §2

[17] = tested on: VAV; assay: Custom AntibodyArray, TRiPS cells: VAV; assay type: cell-based, human; conditions: 15 μg/ml, 30 minutes
Method: as §1, §2

[18] = tested on: STAT2; assay: Custom AntibodyArray, TRiPS cells: STAT2; assay type: cell-based, human; conditions: 15 μg/ml, 30 minutes
Method: as §1, §2

COC(=O)C(c1ccc(-c2ccccc2)cc1)C1CCCCN1 (centres unmarked) [Cpd II]
CD69+TCR staining of PHA-stimulated cells ([1]; PHA 5 μg/ml plus 15 μg/ml): 64%
CD69+TCR staining of PHA-stimulated cells ([1]; PHA 5 μg/ml plus 50 μg/ml): 54%
CD69+TCR staining (activated T cells) ([1]; compound alone, no PHA): not detected
IL-8 production by the TRiPS cell line [2]: no effect on IL-8 production
Mean OD 530 nm ([3]; MC/9, NGF 25 ng/ml + 1 μg/ml, NGF + water 0.101): 0.117 ± 0.015
Mean OD 530 nm ([3]; MC/9, NGF 25 ng/ml + 5 μg/ml, NGF + water 0.101): 0.108 ± 0.012
Mean OD 530 nm ([3]; MC/9, NGF 25 ng/ml + 15 μg/ml, NGF + water 0.101): 0.049 ± 0.016
Mean OD 530 nm ([3]; MC/9, NGF + TSTIM + 1 μg/ml, NGF + TSTIM + water 0.365): 0.428 ± 0.027
Mean OD 530 nm ([3]; MC/9, NGF + TSTIM + 5 μg/ml, NGF + TSTIM + water 0.365): 0.373 ± 0.016
Mean OD 530 nm ([3]; MC/9, NGF + TSTIM + 15 μg/ml, NGF + TSTIM + water 0.365): 0.326 ± 0.024
inhibition of RAP-1 (in words) [4]: appeared to inhibit RAP-1
Integrated Optical Density for RAP-1 assay ([4]; no treatment 259.27, beads only 213.66): 87.26
Effect of Cpd II on the protein in CD3/CD28 stimulated TRiPS cells [5]: Activated
Effect of Cpd II on the protein in CD3/CD28 stimulated TRiPS cells [6]: Activated
Effect of Cpd II on the protein in CD3/CD28 stimulated TRiPS cells [7]: Activated
Effect of Cpd II on the protein in CD3/CD28 stimulated TRiPS cells [8]: Decreased level to below basal levels (Nil control)
Effect of Cpd II on the protein in CD3/CD28 stimulated TRiPS cells [9]: Decreased level back to basal levels (Nil control)
Effect of Cpd II on the protein in CD3/CD28 stimulated TRiPS cells [10]: Decreased level back to basal levels (Nil control)
Effect of Cpd II on the protein in CD3/CD28 stimulated TRiPS cells [11]: Decreased level back to basal levels (Nil control)
Effect of Cpd II on the protein in CD3/CD28 stimulated TRiPS cells [12]: Decreased level back to basal levels (Nil control)
Effect of Cpd II on the protein in CD3/CD28 stimulated TRiPS cells [13]: Decreased level back to basal levels (Nil control)
Effect of Cpd II on the protein in CD3/CD28 stimulated TRiPS cells [14]: Decreased level back to basal levels (Nil control)
Effect of Cpd II on the protein in CD3/CD28 stimulated TRiPS cells [15]: Slightly decreased the level
Effect of Cpd II on the protein in CD3/CD28 stimulated TRiPS cells [16]: Slightly decreased the level
Effect of Cpd II on the protein in CD3/CD28 stimulated TRiPS cells [17]: No effect
Effect of Cpd II on the protein in CD3/CD28 stimulated TRiPS cells [18]: No effect
